# Measurements taken from US20120122908A1, “Novel C-4 Substituted Retinoids” (University of Maryland, priority 2000, published 2012).
# Read-outs that look alike come from different tables or passages of the source.
# Tests used:
# ATRA 4-hydroxylase = ATRA 4-hydroxylase (Mesocricetus auratus, UniProt A0A1U7QD41); assay: Hamster liver microsome assay of ATRA metabolism (ATRA 4-hydroxylase inhibition); assay type: biochemical
# Experimental: Washed hamster liver microsomes were prepared as follows: Livers are removed from sacrificed animals, rinsed in ice-cold 0.9% NaCl solution and homogenized in a 3-fold volume of 0.25 M sucrose-0.05 M Tris-HCl (pH 7.4) using a blender. Microsomes are isolated by differential centrifugation (10,000×g, 20 minutes; 100,000×g, 60 minutes; 4° C.) using a well-known technique (Van Wauwe, J.; Van Nyen, G.; Coene, M-C.; Stoppie, P.; Cols, W.; Goossens, J, Borghgraef, P.; Janssen, P A J, Liarozole, an Inhibitor of Retinoic Acid Metabolism, Exerts Retinoid-Mimetic Effects, In Vivo. J. Pharmacol. Expt. Ther. 261, 773-779, 1992). The microsomes are suspended in PBS buffer (pH 7.4), in 1 ml aliquots and stored at −70° C. until required.
# The standard reaction mixture (total of 400 μl) is composed of assay buffer, 140 μl; microsomes, 100 μl ([…]); NADPH, 100 μl ([…]); and a C-4 substituted ATRA analog dissolved in DMSO, 40 μl. After a 3 minute preincubation at 37° C., the reaction is initiated by addition of 20 μl of [11,12-^3H]-ATRA (20 μCi/ml). The incubation is carried out for 30 minutes under oxygen with shaking in a water bath at 37° C. The reaction is stopped by acidification with 0.1 ml formic acid, and the samples are extracted (×2) with EtOAc (2 ml) containing 0.05% butylated hydroxyanisole. The combined organic extracts are evaporated in vacuo, dissolved in 200 μl of the mobile phase for HPLC. An aliquot is analyzed for tritium content by liquid scintillation spectrometry. Usually, >95% of the added radioactivity is recovered. Most of the samples (150 μl) are analyzed on a 10 (m C18 Bondapak column (3.9×300 mm, Millipore), eluted with a multi-linear gradient solvent system: i, MeOH—H2O—HCOOH (60:40:0.05) containing 10 mM ammonium acetate (100 (0%) and ii, MeOH (0 (100%) at 2 ml/min. The radioactivity is measured by an on-line radio-detector. The Rts of ATRA, 4-hydroxy-ATRA and 4-oxo-ATRA are determined by UV absorbance at 350 nm in separate cuvettes. Typically, 80±5% of [11, 12-^3H]ATRA is converted into the metabolites.
# The C-4 substituted ATRA analogs are tested at two concentrations, 500 and 1000 nM. IC50 and Ki values are determined.
# Incubation of [11,12-^3]ATRA with hamster liver microsomes as described above results in the formation of polar metabolites, including 4-hydroxy-ATRA and 4-oxo-ATRA (see FIG. 7A). […] VN/14-1RA inhibits cytochrome P450-dependent metabolism of ATRA.
# Table 2B represents repeated testing of some of the compounds in Table 2A and testing on additional compounds. For comparison, the IC50 values of liarozole and ketoconazole (known inhibitors of ATRA 4-hydroxylase) were also determined.
# MCF-7Ca tumors = assay: Growth of MCF-7Ca tumors in mice; assay type: in vivo; conditions: 10 mg/kg, after twenty-eight days
# Experimental: FIG. 12. VN/14-1RA inhibition of growth of MCF-7Ca tumors in nude mice.
# LNCaP cells are cultured as described above. Subconfluent cell are scraped into DPBS, counted and suspended in Matrigel (3×10^7 cells/mL). Male SCID mice 4-6 weeks old are obtained from NCI, Frederick, Md. Each mouse is inoculated s.c. with 0.1 mL of the cell suspension at two sites. Growth rate are determined from tumor volumes using calipers using well-known techniques (Yue W, Wang J, Savinov A, Brodie A, Effect of aromatase inhibitors on growth of mammary tumors in a nude mouse model, Cancer Res, July 15; 55(14):3073-7 (1995). Tumor volumes are calculated according to the equation: V=4/3×π×r1^2×r2 (r1<r2). Tumors are allowed to grow for 4-5 weeks following cell inoculation. Mice are then grouped (6 mice per group) for castration or treatment with vehicle, liarozole (as a comparison), or one of the C-4 substituted ATRA analogs (at various concentration based on IC50 and/or Ki values for each novel compound, mg/kg/day). The route of administration of C-4 substituted ATRA analogs include s.c., i.m., i.p., and oral. Tumors are measured weekly for 4-5 weeks of treatment and tumor volumes calculated. Blood is collected from the euthanized animals that are autopsied 1 hour after the last injection. Tumors are excised, weighed and stored at −80° C. until required. […]
# PC-3 cells = conditions: 9 days, with ATRA (1 nM), FIG. 16
# Experimental: Experiments are conducted on two prostate cancer cell lines, LNCaP cells and PC-3 cells.
# This method also is repeated using PC-3 cells.
# PC-3 cells were incubated with test compounds for 9 days with medium changes on days 2, 5, and 7 and proliferation assessed as described above.
# PC-3 tumors = assay: Growth of PC-3 tumors in male nude mice; assay type: in vivo; conditions: PC-3 xenografts
# Experimental: FIG. 20: Effect of ATRA and VN/50A-1 on PC 3 Tumor Volumes in Male Nude Mice
# The effects of VN/50A-1 on tumor growth was determined in mouse xenografts and compared to ATRA as the reference treatment (FIG. 20). Mice were grouped 35 days after cell inoculation when measurable tumor volume was approximately 500 mm^3. Total tumor volume in the control mice increased 5.4-fold over 7 weeks and tumor volume in the mice treated with ATRA increased by 3.2-fold (41% reduction compared with control). In the mice treated with VN/50A-1, tumor volume increased by 3.5-fold, which was 38% reduction versus control mice, which correlated well with accumulation of ATRA in plasma and in tumors. […] VN/50A-1 is completely eliminated from plasma within 3 hour of administration to mice (see FIG. 18). The inventive compounds with longer half-lives will have favorable bioavailability and are expected to be more efficacious.
# Chain of ATRA 4-hydroxylase (A0A1U7QD41 entry or part of it): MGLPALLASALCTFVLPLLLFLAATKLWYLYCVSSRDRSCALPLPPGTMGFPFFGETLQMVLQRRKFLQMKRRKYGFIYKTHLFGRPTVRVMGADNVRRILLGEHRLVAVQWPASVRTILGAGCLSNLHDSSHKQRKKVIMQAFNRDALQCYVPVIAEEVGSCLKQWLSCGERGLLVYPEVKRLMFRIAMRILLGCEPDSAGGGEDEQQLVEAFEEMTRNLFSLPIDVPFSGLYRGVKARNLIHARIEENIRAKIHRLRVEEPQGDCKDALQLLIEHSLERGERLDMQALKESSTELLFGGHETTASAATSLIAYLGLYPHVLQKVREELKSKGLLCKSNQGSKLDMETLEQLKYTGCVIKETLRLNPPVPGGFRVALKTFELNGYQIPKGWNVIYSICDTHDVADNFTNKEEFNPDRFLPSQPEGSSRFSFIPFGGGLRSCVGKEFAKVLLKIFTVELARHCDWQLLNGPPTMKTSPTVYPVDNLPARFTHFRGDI
Compound,"microsomal conversion of ATRA to polar metabolites (ATRA 4-hydroxylase; 1 μM compound, hamster liver microsomes, FIG. 7B)","IC50 (ATRA 4-hydroxylase; hamster liver microsomes, Table 2A, initial testing, read-out: IC50 Value) [nM]","IC50 (ATRA 4-hydroxylase; hamster liver microsomes, Table 2B, repeated testing and additional compounds, read-out: IC50 Value, Inhibition of ATRA 4-Hydroxylase) [nM]",size of MCF-7Ca tumors relative to control group (MCF-7Ca tumors),antiproliferative effect on PC-3 cells (PC-3 cells),tumor weights versus control mice (PC-3 tumors),reduction of tumor volume compared with control (PC-3 tumors; over 7 weeks) [%],"increase of total tumor volume (PC-3 tumors; over 7 weeks, control 5.4-fold) [fold]","fold more potent than liarozole (ATRA 4-hydroxylase; ratio of IC50 values, liarozole IC50 6,000 nM)"
"CC1=C(/C=C/C(C)=C/C=C/C(C)=C/C(=O)O)C(C)(C)CCC1n1ccnc1 (racemic) [VN/14-1, (±)-4-(1H-imidazole-1-yl)retinoic acid]",significantly suppressed,100 ± 1,1.2 ± 0.072,one-half,clearly more effective than liarozole,,,,
CC(C=CC1=C(C)C(n2ccnc2)CCC1(C)C)=CC=CC(C)=CC(=O)n1ccnc1 (stereo not drawn) [VN/50A-1],,,,,,significantly (P<0.05) lower,38,3.5,"240,000 fold"
